Reference: patent US9150837B2, “Polyethylene glycolated superoxide dismutase mimetics” (Galera Therapeutics, LLC, priority 2004, dated 2015)

Tested on: carrageenan-induced hyperalgesia
Conditions: 0.1 mg/kg, s.c.
Procedure: Male Sprague-Dawley rats (175-200 g, Harlan Sprague Dawley, Indianapolis, Ind., USA) were housed and cared for in accordance with the guidelines of the Institutional Animal Care and Use Committee and in accordance with NIH guidelines on laboratory animal welfare. Rats received a subplantar injection of carrageenan (0.1 ml of a 1% suspension in 0.85% saline) into the right hind paw. A hyperalgesic response to heat was determined in the animals by Hargreaves' method (Hargreaves et al., 1988). Rats were individually confined and acclimated to Plexiglas chambers for 30 min. A mobile unit consisting of a high intensity projector bulb was positioned to deliver a thermal stimulus directly to an individual hind paw from beneath the chamber. The withdrawal latency period of injected and contralateral paws was determined to the nearest 0.1 sec with an electronic clock circuit and thermocouple. […] Each point will represent the change in withdrawal latency compared with control measurements taken prior to carrageenan injection.

CN1CC[C@]23c4c5ccc(O)c4O[C@H]2[C@@H](O)C=C[C@H]3[C@H]1C5 [morphine]
inhibition of hyperalgesia: modest inhibition of hyperalgesia
